Measurements: patent US20230133958A1, “COMPOUNDS USEFUL IN MODULATING EGFR AND PI3K” (Mekanistic Therapeutics LLC, priority 2021, published 2023)

Assay: Metabolic stability in human liver microsomes
Type: in vitro ADME
Conditions: Human Liver Microsome (HLM)
Protocol: Working solution: 5 µL of compound and control stock solution (10 mM in dimethyl sulfoxide (DMSO)) were diluted with 495 µL of acetonitrile (ACN) (intermediate solution concentration: 100 µM, 99% ACN)
NADPH Cofactor Preparation: NADPH powder: β-Nicotinamide adenine dinucleotide phosphate reduced form, tetrasodium salt; NADPH 4 Na. The appropriate amount of NADPH powder was weighed and diluted into a 10 mM MgCl2 solution (working solution concentration: 10 unit/mL; final concentration in reaction system: 1 unit/mL)
Liver Microsomes Preparation: The appropriate concentrations of microsome working solutions were prepared in 100 mM potassium phosphate buffer. Cold (4° C.) acetonitrile (ACN) containing 200 ng/mL tolbutamide and 200 ng/mL labetalol as internal standards (IS) was used as the stop solution
Assay Procedure: Pre-warm empty ‘Incubation’ plates T60 and NCF60 for 10 minutes. Dilute liver microsomes to 0.56 mg/mL in 100 mM phosphate buffer. Transfer 445 µL microsome working solutions (0.56 mg/mL) into pre-warmed ‘Incubation’ plates T60 and NCF60, Then pre-incubate ‘Incubation’ plates T60 and NCF60 for 10 min at 37° C. with constant shaking. […]
The biological stability of the compounds of the invention can be measured by determining its ½ life in the presence microsomes. […]

## CS(=O)(=O)Nc1cc(-c2ccc3ncnc(Nc4cccc(Cl)c4F)c3c2)cnc1Cl [Compound 6, N-[2-chloro-5-[4-(3-chloro-2-fluoro-anilino)quinazolin-6-yl]-3-pyridyl] methanesulfonamide]
  half-life at 1 µM: 10 to 100 min
